In US20230061736A1, “GPR119 AGONISTS” (Kallyope, Inc., priority 2019, published 2023):
Counter-ions that a name gives are not always drawn.

Target: T1, human GPR119 (hGPR119) (Homo sapiens, UniProt Q8TDV5)
T1 construct: expressed in transfected cells
T1 sequence (Q8TDV5 1-335): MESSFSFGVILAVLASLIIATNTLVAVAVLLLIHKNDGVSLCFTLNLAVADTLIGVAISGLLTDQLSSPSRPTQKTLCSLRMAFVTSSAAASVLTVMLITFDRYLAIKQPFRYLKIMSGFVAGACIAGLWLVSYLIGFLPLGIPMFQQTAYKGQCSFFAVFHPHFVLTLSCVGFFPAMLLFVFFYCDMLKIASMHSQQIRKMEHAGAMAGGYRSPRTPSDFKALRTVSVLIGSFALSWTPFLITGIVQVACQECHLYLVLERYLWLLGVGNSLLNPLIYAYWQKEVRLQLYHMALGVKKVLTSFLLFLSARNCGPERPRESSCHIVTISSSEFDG
Assay: cAMP accumulation assay (cAMP Gs dynamic HTRF kit)
Format: cell-based
Conditions: CHO-K1 cells stably expressing hGPR119, 4-parameter fit; for Emax: 1 h, % activity normalized to Max/Min controls; for EC50: cAMP accumulation
In short: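 Read-out is HTRF 665/620 nm ratio after 1 h detection at ambient temperature, converted to % activity against positive and negative controls, EC50 and Max activity by 4-parameter fit. Compounds were titrated onto ~10,000 thawed hGPR119-CHO-K1 cells/well for 60 min at 37° C/5% CO2.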

COCc1cnc(N2CCC(CCCOc3cc(F)c(CC(=O)N4CCC(O)(CNCC(CO)(CO)CO)C4)c(F)c3)CC2)nc1 (stereo not drawn) [Example 190, 2-[2,6-difluoro-4-[3-[1-[5-(methoxymethyl)pyrimidin-2-yl]-4-piperidyl]propoxy]phenyl]-1-[3-hydroxy-3-[[[3-hydroxy-2,2-bis(hydroxymethyl)propyl]amino]methyl]pyrrolidin-1-yl]ethanone]
Emax: 100 to 130% | EC50: ≤ 100 nM

O=C(CCC1CN(C(=O)Cc2c(F)cc(OCCCC3CCN(c4ncc(Cl)cn4)CC3)cc2F)C1)NCC(O)(CO)CO [Example 36, 3-[1-[2-[4-[3-[1-(5-chloropyrimidin-2-yl)-4-piperidyl]propoxy]-2,6-difluoro-phenyl]acetyl]azetidin-3-yl]-N-[2,3-dihydroxy-2-(hydroxymethyl)propyl]propanamide]
Emax: 100 to 130% | EC50: ≤ 100 nM

CCc1cnc(N2CCC(CCCOc3cc(F)c(CC(=O)N4CC(CNCC(O)(CO)CO)C4)c(F)c3)CC2)nc1 [Example 67, 1-(3-(((2,3-dihydroxy-2-(hydroxymethyl)propyl)amino)methyl)azetidin-1-yl)-2-(4-(3-(1-(5-ethylpyrimidin-2-yl)piperidin-4-yl)propoxy)-2,6-difluorophenyl)ethan-1-one]
Emax: 100 to 130% | EC50: ≤ 100 nM

COCc1cnc(N2CCC([C@H]3C[C@H]3COCc3ccc(CC(=O)N4CC(CNC[C@H](O)[C@@H](O)[C@H](O)[C@H](O)CO)C4)c(F)c3)CC2)nc1 [Example 96, 2-[2-fluoro-4-[[(1R,2R)-2-[1-[5-(methoxymethyl)pyrimidin-2-yl]-4-piperidyl]cyclopropyl]methoxymethyl]phenyl]-1-[3-[[[(2S,3R,4R,5R)-2,3,4,5,6-pentahydroxyhexyl]amino]methyl]azetidin-1-yl]ethanone]
Emax: 100 to 130% | EC50: 100 to 1000 nM

CC(C)OC(=O)N1CCC2(CCC2CCOc2ccc(CC(=O)N3CC(CNC[C@H](O)[C@@H](O)[C@H](O)[C@H](O)CO)C3)c(F)c2)CC1 (stereo partly drawn) [Example 140, isopropyl 3-[2-[3-fluoro-4-[2-oxo-2-[3-[[[(2S,3R,4R,5R)-2,3,4,5,6-pentahydroxyhexyl]amino]methyl]azetidin-1-yl]ethyl]phenoxy]ethyl]-7-azaspiro[3.5]nonane-7-carboxylate]
Emax: < 50% | EC50: > 10000 nM

O=C(Cc1ccc(OCCCC2CCN(c3ncc(Cl)cn3)CC2)cn1)N1CC(CNC[C@H](O)[C@@H](O)[C@H](O)[C@H](O)CO)C1 [Example 169, 2-[5-[3-[1-(5-chloropyrimidin-2-yl)-4-piperidyl]propoxy]-2-pyridyl]-1-[3-[[[(2S,3R,4R,5R)-2,3,4,5,6-pentahydroxyhexyl]amino]methyl]azetidin-1-yl]ethanone]
Emax: 100 to 130% | EC50: 1000 to 10000 nM

O=C(Cc1ccc(OCCCC2CCN(c3ncc(Cl)cn3)CC2)nc1)N1CC(CNC[C@H](O)[C@@H](O)[C@H](O)[C@H](O)CO)C1 [Example 179, 2-[6-[3-[1-(5-chloropyrimidin-2-yl)-4-piperidyl]propoxy]-3-pyridyl]-1-[3-[[[(2S,3R,4R,5R)-2,3,4,5,6-pentahydroxyhexyl]amino]methyl]azetidin-1-yl]ethanone]
Emax: 100 to 130% | EC50: 1000 to 10000 nM

O=C(CC1CN(C(=O)Cc2ccc(OCCCC3CCN(c4ncc(Cl)cn4)CC3)cc2F)C1)NCCCCS(=O)(=O)O [Example 178, 4-[[2-[1-[2-[4-[3-[1-(5-chloropyrimidin-2-yl)-4-piperidyl]propoxy]-2-fluoro-phenyl]acetyl]azetidin-3-yl]acetyl]amino]butane-1-sulfonic acid]
Emax: 100 to 130% | EC50: 100 to 1000 nM

CCCc1cnc(N2CCC(CCCOc3cc(F)c(CC(=O)N4CC(C(=O)NCCC[N+](C)(C)C)C4)c(F)c3)CC2)nc1 [Example 40, 3-[[1-[2-[2,6-difluoro-4-[3-[1-(5-propylpyrimidin-2-yl)-4-piperidyl]propoxy]phenyl]acetyl]azetidine-3-carbonyl]amino]propyl-trimethyl-ammonium formate]
Emax: 100 to 130%

NCCOCCOCCNCC1CN(C(=O)Cc2ccc(OCCCC3CCN(c4ncc(Cl)cn4)CC3)cc2F)C1 [Example 52, 1-[3-[[2-[2-(2-aminoethoxy)ethoxy]ethylamino]methyl]azetidin-1-yl]-2-[4-[3-[1-(5-chloropyrimidin-2-yl)-4-piperidyl]propoxy]-2-fluoro-phenyl]ethanone]
Emax: 100 to 130% | EC50: 100 to 1000 nM

COc1cnc(N2CCC(CCCOc3ccc(CC(=O)N4CC(CNC[C@H](O)[C@@H](O)[C@H](O)[C@H](O)CO)C4)c(F)c3)CC2)nc1 (racemic) [Example 79, 2-[2-fluoro-4-[3-[1-(5-methoxypyrimidin-2-yl)-4-piperidyl]propoxy]phenyl]-1-[3-[[[rac-(2S,3R,4R,5R)-2,3,4,5,6-pentahydroxyhexyl]amino]methyl]azetidin-1-yl]ethanone]
Emax: 100 to 130% | EC50: 100 to 1000 nM

CCCc1cnc(N2CCC(CCCOc3cc(F)c(CC(=O)N4CC(CNC[C@H](O)[C@@H](O)[C@H](O)[C@H](O)CO)C4)c(F)c3)CC2)nc1 [Example 78, 2-(2,6-difluoro-4-(3-(1-(5-propylpyrimidin-2-yl)piperidin-4-yl)propoxy)phenyl)-1-(3-((((2S,3R,4R,5R)-2,3,4,5,6-pentahydroxyhexyl)amino)methyl)azetidin-1-yl)ethan-1-one]
Emax: 100 to 130% | EC50: ≤ 100 nM

O=C(Cc1ccc(OCCCC2CCN(c3ncc(Cl)cn3)CC2)cc1F)NCCCCCNC(CO)CO [Example 1, 2-[4-[3-[1-(5-chloropyrimidin-2-yl)-4-piperidyl]propoxy]-2-fluoro-phenyl]-N-[5-[[2-hydroxy-1-(hydroxymethyl)ethyl]amino]pentyl]acetamide]
Emax: ≥ 130% | EC50: 100 to 1000 nM

O=C(Cc1ccc(OCCCC2CCN(c3ncc(Cl)cn3)CC2)cc1F)N1CCC(O)(CNCC(CO)(CO)CO)CC1 [Example 183, 2-[4-[3-[1-(5-chloropyrimidin-2-yl)-4-piperidyl]propoxy]-2-fluoro-phenyl]-1-[4-hydroxy-4-[[[3-hydroxy-2,2-bis (hydroxymethyl)propyl]amino]methyl]-1-piperidyl]ethanone]
Emax: 100 to 130% | EC50: ≤ 100 nM

CC(C)OC(=O)N1CCC2(CC1)CC(CCOc1ccc(CC(=O)N3CC(CNC[C@H](O)[C@@H](O)[C@H](O)[C@H](O)CO)C3)c(F)c1)C2 [Example 118, isopropyl 2-[2-[3-fluoro-4-[2-oxo-2-[3-[[[(2S,3R,4R,5R)-2,3,4,5,6-pentahydroxyhexyl]amino]methyl]azetidin-1-yl]ethyl]phenoxy]ethyl]-7-azaspiro[3.5]nonane-7-carboxylate]
Emax: 100 to 130% | EC50: 100 to 1000 nM

O=C(Cc1ccc(OCCCC2CCN(c3ncc(Cl)cn3)CC2)cc1F)N1CC(CNCC(CO)CO)C1 [Example 45, 2-[4-[3-[1-(5-chloropyrimidin-2-yl)-4-piperidyl]propoxy]-2-fluoro-phenyl]-1-[3-[[[3-hydroxy-2-(hydroxymethyl)propyl]amino]methyl]azetidin-1-yl]ethanone]
Emax: 100 to 130% | EC50: ≤ 100 nM

O=C(Cc1ccc(OCCCC2CCN(c3ncc(Cl)cn3)CC2)cc1F)N1CC(CN2C[C@@H](O)[C@H](O)C2)C1 (stereo in doubt) [Example 47, 2-[4-[3-[1-(5-chloropyrimidin-2-yl)-4-piperidyl]propoxy]-2-fluoro-phenyl]-1-[3-[[rac-(3R,4R)-3,4-dihydroxypyrrolidin-1-yl]methyl]azetidin-1-yl]ethanone]
Emax: 100 to 130% | EC50: ≤ 100 nM
